Results published in US20110009342A1, “USES OF PDCD5 POLYPEPTIDE FOR TUMOR CHEMOTHERAPY AND ORGAN PROTECTION” (priority 2008, published 2011).
Entries after “also recorded” stand apart in the source; their conditions may differ.

B1: PDCD5-FITC: rhPDCD5 protein covalently labeled by fluorescein isothiocyanate (conjugate, UniProt O14737 2-125, looked up)
Programmed cell death protein …: ADEELEALRRQRLAELQAKHGDPGDAAQQEAKHREAEMRNSILAQVLDQSARARLSNLALVKPEKTKAVENYLIQMARYGQLSEKVSEQGLIEILKKVSQQTEKTTTVKFNRRKVMDSDEDDDY
modifications: FITC label
notes: rhPDCD5 protein covalently labeled by fluorescein isothiocyanate

Tests used:
[1] = system: K562 cells; test: FITC/Annexin-V apoptosis by flow cytometry, IDR; assay type: cell-based; conditions: IDR 56 ng/mL; PDCD5 30 μg/mL where combined; 24 hours
Method: Methods: Cell staining with FITC/Annexin-V and cell apoptosis in vitro detection by flow cytometry: K562 cells (ATCC) were maintained in RPMI 1640 (Life Technologies, USA) supplemented with 10% FBS (Hyclone, USA), and were plated in 24-well culture dishes to a density of 2×10^5 cells/mL. rhPDCD5 protein was added with a final concentration of 7.5 μg/mL, 15 μg/mL and 30 μg/mL, respectively, in each well. Chemotherapeutic drug IDR was then added with a final concentration of 56 ng/mL and RPMI 1640 with 10% FBS was added to make the system to 1 mL. After 24 hours of co-culture, the cells were stained with FITC/Annexin-V (Baosai company) and apoptosis was detected by flow cytometry.

[2] = system: K562 cells; test: clonogenic assay of agarose, IDR; assay type: cell-based; conditions: Homo sapiens, K562, 336 h; IDR 35 ng/mL; PDCD5 15-60 μg/mL where combined; 14 days; read-out: rate of clonogenic inhibition
Method: Clonogenic assay of agarose: Cell concentration was adjusted to 2.5×10^5 cell/mL. NS (control group) was prepared by taking 0.01 mL single-cell suspension, 0.5 mL 1% agarose, and 0.5 mL 2×RPMI 1640 medium containing 20% FCS, to bring the culture system to 1.0 mL. Test groups were prepared by taking 0.01 mL single-cell suspension and 0.5 mL 1% agarose, and taking IDR and PDCD5 diluted with 2×RPMI 1640 medium containing 20% FCS to an appropriated volume (having a final concentration of 35 ng/mL for IDR, and a final concentration of 15 μg/mL, 30 μg/mL, or 60 μg/mL for PDCD5 in each respective test group) and further diluted by adding 2×RPMI 1640 medium containing 20% FCS to 0.5 mL, and bringing the culture system to 1.0 mL. The culture system was added to 24-well plates, with 1 mL per well, and triplicate wells for each group. The plates were incubated in a CO2 incubator for 14 days until colonies formed. The clonogenic number was counted by microscope. A colony with more than 30 cells was counted as one positive colony.

[3] = system: K562 cell xenografts; test: K562 cell xenografts in nude mice, IDR; assay type: in vivo, BALB/c nude mice; conditions: IDR 70 μg
Method: Methods: BALB/c nude female mice (6-8 weeks of age) were used, and the mice were pretreated by i.p. injections of cyclophosphamide (Jiangsu Hengrui Medicine Co., Ltd.) once daily at a dose of 2 mg per mouse for two consecutive days. After two days of the cyclophosphamide injection, 1.5×10^7 K562 cells were injected subcutaneously into the single flanks of the mouse. The mice bearing K562 cell xenografts were divided randomly into five groups: Normal saline, irrelevant protein, rhPDCD5, IDR (idarubicin, Sigma Company), and IDR plus rhPDCD5. IDR treatments were given every other day i.p. The longest diameter and shortest diameter of tumors were measured by vernier caliper at the beginning of treatment and during the treatment. […] At the end of the experiment, the mice were killed and tumor masses were dissected and then weighed. […] Tumor volume was calculated using the following formula: πls^2/6, where 1=long diameter and s=short diameter.

[4] = system: mouse livers; test: HE staining of liver paraffin sections of treated K562 xenograft mice; assay type: in vivo, BALB/c nu/nu mice
Method: (§1) Methods: BALB/c nu/nu female mice (6-8 weeks of age) were injected intraperitoneally with cyclophosphamide (CTX) (Jiangsu Hengrui Medicine Co., Ltd.), 2 mg/day per mouse for two days. One day after the second cyclophosphamide injection, 1.5×10^7 of K562 cells were injected subcutaneously into the single armpit of each of the mice. The mice bearing K562 cell xenografts were divided randomly into nine groups (n=6, i.e., six mice in each group) and each of the mice was i.p. treated, respectively, with normal saline, PDCD5, IDR (Sigma Corporation), and IDR plus PDCD5. […] At the end of the experiment, mice were killed. The mice were the same batch of that of Example 6. The excised liver of mice after treatment were fixed in 10% neutrally buffered formalin and then embedded in paraffin after dehydration. The paraffin embedding was cut and paraffin sections after HE staining were used to observe the necrosis of experimental mouse livers. Meanwhile, paraffin sections after Tunel (Roche Inc.) staining were used to observe the apoptosis of experimental mouse livers, and then the number of apoptotic cells was counted in five high-power microscope field for statistical analysis.

[5] = system: mouse livers; test: Tunel staining of liver paraffin sections of treated K562 xenograft mice; assay type: in vivo, BALB/c nu/nu mice; conditions: five high power microscope fields
Method: Methods: BALB/c nu/nu female mice (6-8 weeks of age) were injected intraperitoneally with cyclophosphamide (CTX) (Jiangsu Hengrui Medicine Co., Ltd.), 2 mg/day per mouse for two days. One day after the second cyclophosphamide injection, 1.5×10^7 of K562 cells were injected subcutaneously into the single armpit of each of the mice. The mice bearing K562 cell xenografts were divided randomly into nine groups (n=6, i.e., six mice in each group) and each of the mice was i.p. treated, respectively, with normal saline, PDCD5, IDR (Sigma Corporation), and IDR plus PDCD5. Normal saline, PDCD5 (200 μg, 400 μg, or 800 μg, i.e., 10 mg/kg, 20 mg/kg, or 40 mg/kg, respectively), IDR (25 μg, i.e., 1.25 mg/kg) and IDR (25 μg, i.e., 1.25 mg/kg) plus PDCD5 (200 μg, 400 μg, or 800 μg, i.e., 10 mg/kg, 20 mg/kg, or 40 mg/kg, respectively) were used for intraperitoneal injection every other day for a total of five treatments. […] At the end of the experiment, mice were killed.
The excised liver of mice after treatment were fixed in 10% neutrally buffered formalin and then embedded in paraffin after dehydration. […] Meanwhile, paraffin sections after Tunel (Roche Inc.) staining were used to observe the apoptosis of experimental mouse livers, and then the number of apoptotic cells was counted in five high-power microscope field for statistical analysis.

[6] = system: mice hearts; test: HE staining of heart paraffin sections of treated K562 xenograft mice; assay type: in vivo, BALB/c nu/nu mice
Method: as §1, with “hearts” for “liver”, “myocardial congestion, hemorrhage, and myofiber degeneration” for “necrosis”, “heart” for “experimental mouse livers. Meanwhile, paraffin sections after Tunel (Roche Inc.) staining were used to observe the apoptosis of experimental mouse livers, and then the number of apoptotic cells was counted”, “mice.” for “five high-power microscope field for statistical analysis.”

[7] = system: mouse bone marrow; test: HE staining of bone marrow paraffin sections of treated K562 xenograft mice; assay type: in vivo, BALB/c nu/nu mice; conditions: combination compared with IDR alone
Method: Methods: Cyclophosphamide (CTX) (Jiangsu Hengrui Medicine Co., Ltd.) was used for intraperitoneal injection in BALB/c nu/nu female mice (6-8 weeks of age) and injection lasted for two days. One day after the second cyclophosphamide injection, 1.5×10^7 of K562 cells were injected subcutaneously into the single armpit of the mice. The mice bearing K562 cell xenografts were divided randomly into nine groups (n=6, i.e., six mice in each group) and i.p. treated with normal saline, PDCD5, IDR (Sigma Corporation), and IDR plus PDCD5. Normal saline, PDCD5 (200 μg, 400 μg, or 800 μg, i.e., 10 mg/kg, 20 mg/kg, or 40 mg/kg), […]., 1.25 mg/kg) and […]., 1.25 mg/kg) plus PDCD5 (200 μg, 400 μg, or 800 μg, i.e., 10 mg/kg, 20 mg/kg, or 40 mg/kg) were used for intraperitoneal injection and were given every other day for a total of five treatments. […] At the end of the experiment, mice were killed. The mice were the same batch of that in Example 6. The excised bone of mice after treatment were fixed in 10% neutrally buffered formalin and then embedded in paraffin after dehydration. The paraffin embedding was cut and paraffin sections after HE staining were used to count the number of nucleated cells of each group in mouse bone marrow paraffin sections.

[8] = system: HEK293 cells; test: PDCD5-FITC internalization, flow cytometry; assay type: cell-based; conditions: incubated at 4° C.
Method: Methods: HEK293 and U937 cells (ATCC) were maintained in RPMI 1640 (Life Technologies, USA), supplemented with 10% heat-inactivated fetal bovine serum (Hyclone, USA), penicillin (100 units/mL), streptomycin (100 μg/mL), and L-glutamine (2 mM). The HEK293 cells were adherent cells with expression of caveolin-1, while the U937 cells were suspension cells without expression of caveolin-1.
The purified rhPDCD5 protein from Example 2 was suspended into 0.025 M sodium carbonate-sodium bicarbonate buffer (pH 9.0). The rhPDCD5 protein was labeled (covalent) by fluorescein isothiocyanate (FITC, Sigma-Aldrich) as described by Masseyeff R. F. et al. (Methods Immunology Analysis 3, 237-238, 1993), and then purified by Sephadex G25 to remove free FITC to obtain PDCD5-FITC protein.
Results: Performance of Flow Cytometry: Quantification of internalized FITC-labeled PDCD5 recombinant protein: HEK293cells were plated in 24-well plates to about 70% confluence, […] FIG. 3. After incubation, the cells were then washed twice, trypsinized, centrifuged, again washed twice with PBS, and finally analyzed by flow cytometry using a FACSCalibur flow cytometer (BD Biosciences).

[9] = system: U937 cells; test: PDCD5-FITC internalization, flow cytometry; assay type: cell-based; conditions: incubated at 4° C.
[10] = system: HEK293 cells; test: intracellular localization of FITC-labeled PDCD5, fluorescence microscopy; assay type: cell-based; conditions: 20 μg/mL, 5 hours
Method: Analysis of intracellular localization of the FITC-labeled recombinant PDCD5 protein by fluorescence microscopy: HEK293 cells were grown in specialized glass-bottom microwell dishes (MatTek Corp., USA) to about 50% confluence and washed, and then fresh 10% fetal bovine serum medium and PDCD5-FITC was added to a final concentration of 20 μg/mL. At each time point shown in the drawing, the cells were rinsed twice with PBS buffer and fixed with 2% paraformaldehyde in PBS for 15 min at room temperature. Cells were imaged using a TCS-SP laser-scanning confocal microscope with a 40× or 63×oil immersion lenses (Leica Microsystems, Mannheim, Germany). Nuclei were visualized by Hoechst 33342 (red regions, a pseudocolor).

[11] = no PDCD5, Imatinib 1.2 mg oral or IDR 25 μg i.p., n=6

Molecule	cell apoptosis rate [1]	inhibition at 0.035 µg/mL [2]	tumor inhibitory rate ([3]; PDCD5 local (intratumoral) injection, 60 μg where combined)	tumor inhibitory rate ([3]; treatment started at average tumor volume 57.7 mm^3, PDCD5 i.p. 800 μg where combined)	sinusoidal expansion, congestive hemorrhage and necrosis of liver cells surrounding sinusoid (in words) ([4]; HE staining)	Sinusoidal expansion, congestive hemorrhage and necrosis of liver cells surrounding sinusoid: mice graded + [4, 11]	Sinusoidal expansion, congestive hemorrhage and necrosis of liver cells surrounding sinusoid: mice graded ++ [4, 11]	Sinusoidal expansion, congestive hemorrhage and necrosis of liver cells surrounding sinusoid: mice graded +/− [4, 11]	Sinusoidal expansion, congestive hemorrhage and necrosis of liver cells surrounding sinusoid: mice graded − [4, 11]	number of apoptotic cells in mice liver, IDR alone vs IDR combined with PDCD5 [5]	myocardial hemorrhage and congestion, and myofiber fracture/degeneration (in words) ([6]; HE staining)	Myocardial hemorrhage and congestion: mice graded + [6, 11]	Myocardial hemorrhage and congestion: mice graded ++ [6, 11]	Myocardial hemorrhage and congestion: mice graded − [6, 11]	Myofiber degeneration: mice graded + [6, 11]	Myofiber degeneration: mice graded − [6, 11]	number of mouse bone marrow nucleated cells [7]	internalization (uptake) at 4° C. [8]	internalization (uptake) at 4° C. [9]	intracellular localization of fluorescence [10]
CC(=O)[C@]1(O)Cc2c(O)c3c(c(O)c2[C@@H](O[C@H]2C[C@H](N)[C@H](O)[C@H](C)O2)C1)C(=O)c1ccccc1C3=O [IDR, idarubicin]	22.57%	35.5%	60.27%	62.79%	significant	3 number of mice	3 number of mice	0 number of mice	0 number of mice	significantly higher	significant	3 number of mice	3 number of mice	0 number of mice	3 number of mice	3 number of mice	decreased	–	–	–
B1	–	–	–	–	–	–	–	–	–	–	–	–	–	–	–	–	–	blocked; also recorded: inhibited	blocked; also recorded: inhibited	localized to discrete compartments in the cytoplasm
